PMC9782245, “Synthesis and Structural Optimization of 2,7,9-Trisubstituted purin-8-ones as FLT3-ITD Inhibitors” (International Journal of Molecular Sciences, 2022)
pIC50: −log10 of the molar value. Where “and” joins values, the source holds several entries; their conditions need not be identical. Identical values can stand only once. Like-named read-outs stand apart in the source and are kept apart here.

Tests used:
CDK4 = target: T1, CDK4 (Homo sapiens, UniProt P11802); experiment: Kinase selectivity panel at 1 µM (Eurofins), CDK4; format: biochemical
T1 construct: purchased Eurofins Discovery (France)
T1 sequence (P11802 whole entry): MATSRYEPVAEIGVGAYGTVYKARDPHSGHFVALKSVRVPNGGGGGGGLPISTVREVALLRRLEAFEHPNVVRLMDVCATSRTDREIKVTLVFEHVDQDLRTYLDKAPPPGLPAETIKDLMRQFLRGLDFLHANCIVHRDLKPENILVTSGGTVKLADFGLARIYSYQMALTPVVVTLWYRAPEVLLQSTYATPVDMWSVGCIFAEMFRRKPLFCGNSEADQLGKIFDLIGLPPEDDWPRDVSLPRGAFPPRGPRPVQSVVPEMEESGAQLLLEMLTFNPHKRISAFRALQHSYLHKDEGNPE
T1 sequence (P30281 whole entry partner): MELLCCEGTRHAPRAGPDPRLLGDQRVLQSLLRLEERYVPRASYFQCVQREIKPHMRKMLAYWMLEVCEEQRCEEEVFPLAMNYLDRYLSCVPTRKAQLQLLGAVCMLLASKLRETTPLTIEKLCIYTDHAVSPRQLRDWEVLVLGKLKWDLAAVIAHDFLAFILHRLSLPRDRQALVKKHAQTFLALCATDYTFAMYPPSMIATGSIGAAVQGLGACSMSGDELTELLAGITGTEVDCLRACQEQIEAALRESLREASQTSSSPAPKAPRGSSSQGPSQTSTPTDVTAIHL
Protocol: (§1) Three representative compounds (14d, 14e, and 15a) were profiled in a 1 µM concentration against 30 kinases that were selected as known off-targets of approved CDK4/6 inhibitors. […] Additional sensitive kinases include STK16, EphA1, MEKK2, SRC, and MER (≤10% of residual enzyme activities), which are not targets of the structurally similar CDK4/6 inhibitor, trilaciclib. We also screened compound 15a, an analogue of 14d, bearing isopropyl at position 7 of the purine instead of the methyl group. This change rapidly diminished the potency against CDK4 (dropped to 90% of residual enzyme activity), but the preference for FLT3 remained (1st rank) (Figure 2).
(§2) CDK/cyclin complexes and FLT3 kinases were assayed as previously described. Protein kinase selectivity was evaluated at a single concentration (1 µM) by screening against 30 enzymes at Eurofins Discovery (France).

MV4-11 cells = experiment: Resazurin-based viability assay, MV4-11; format: cell-based, Human; conditions: for GI50: Homo sapiens, MV4-11, 72 h, resazurin, at least duplicate experiments
Excerpt: (§3) In parallel to kinase assays, we measured the effect of compounds on the viability of cancer cell lines MV4-11 and K562 using a resazurin-based assay. MV4-11 is an AML cell line dependent on a constitutively activated FLT3-ITD kinase with high sensitivity to FLT3 inhibition, K562 cells (chronic myelogenous leukemia) are independent on FLT3.
(§4) Human cell lines were obtained from the European Collection of Authenticated Cell Cultures (K562) and Cell lines service (MV4-11) and were cultivated according to the provider’s instructions. Briefly, cells were maintained in RPMI-1640 (MV4-11) or DMEM (K562) supplemented with 10% fetal bovine serum, penicillin (100 U/mL), and streptomycin (0.1 mg/mL) at 37 °C in 5% CO2. For the viability assays, cells were treated in triplicate with six different doses of each compound for 72 h. After treatments, the resazurin (Sigma Aldrich, St. Louis, MO, USA) solution was added for 4 h, and the fluorescence of resorufin corresponding to live cells was measured at 544/590 nm (excitation/emission) using a Fluoroskan Ascent microplate reader (Labsystems). The GI50 value, the drug concentration lethal to 50% of the cells, was calculated from the dose-response curves that resulted from the assays.

CDK4/D1 = CDK4/D1 (Homo sapiens, UniProt P11802); experiment: Kinase inhibition assay CDK4/D1; format: biochemical
CDK4/D1, sequence (P11802 whole entry): as the sequence (P11802 whole entry) above
CDK4/D1, sequence (P24385 whole entry partner): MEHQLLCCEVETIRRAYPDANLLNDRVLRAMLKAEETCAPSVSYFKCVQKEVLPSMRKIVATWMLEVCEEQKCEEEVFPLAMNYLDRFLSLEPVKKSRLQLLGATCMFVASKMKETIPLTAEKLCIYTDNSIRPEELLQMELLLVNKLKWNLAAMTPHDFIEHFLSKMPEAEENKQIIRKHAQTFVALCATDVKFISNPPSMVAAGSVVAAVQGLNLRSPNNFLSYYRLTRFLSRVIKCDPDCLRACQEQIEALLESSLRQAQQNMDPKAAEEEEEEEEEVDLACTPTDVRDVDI
Protocol: (§5) Newly prepared compounds 12–15 were assayed for inhibition of FLT3-ITD kinase as well as CDK4 and CDK2, known off-targets of structurally related compounds. We observed that CDK4 was sensitive to nearly all compounds with IC50 values in mid-nanomolar values.
as §2

FLT3 = target: T2, FLT3 (Homo sapiens, UniProt P36888); experiment: Kinase selectivity panel at 1 µM (Eurofins), FLT3; format: biochemical; conditions: 30 kinases
T2 construct: purchased Eurofins Discovery (France)
T2 sequence (P36888 27-993): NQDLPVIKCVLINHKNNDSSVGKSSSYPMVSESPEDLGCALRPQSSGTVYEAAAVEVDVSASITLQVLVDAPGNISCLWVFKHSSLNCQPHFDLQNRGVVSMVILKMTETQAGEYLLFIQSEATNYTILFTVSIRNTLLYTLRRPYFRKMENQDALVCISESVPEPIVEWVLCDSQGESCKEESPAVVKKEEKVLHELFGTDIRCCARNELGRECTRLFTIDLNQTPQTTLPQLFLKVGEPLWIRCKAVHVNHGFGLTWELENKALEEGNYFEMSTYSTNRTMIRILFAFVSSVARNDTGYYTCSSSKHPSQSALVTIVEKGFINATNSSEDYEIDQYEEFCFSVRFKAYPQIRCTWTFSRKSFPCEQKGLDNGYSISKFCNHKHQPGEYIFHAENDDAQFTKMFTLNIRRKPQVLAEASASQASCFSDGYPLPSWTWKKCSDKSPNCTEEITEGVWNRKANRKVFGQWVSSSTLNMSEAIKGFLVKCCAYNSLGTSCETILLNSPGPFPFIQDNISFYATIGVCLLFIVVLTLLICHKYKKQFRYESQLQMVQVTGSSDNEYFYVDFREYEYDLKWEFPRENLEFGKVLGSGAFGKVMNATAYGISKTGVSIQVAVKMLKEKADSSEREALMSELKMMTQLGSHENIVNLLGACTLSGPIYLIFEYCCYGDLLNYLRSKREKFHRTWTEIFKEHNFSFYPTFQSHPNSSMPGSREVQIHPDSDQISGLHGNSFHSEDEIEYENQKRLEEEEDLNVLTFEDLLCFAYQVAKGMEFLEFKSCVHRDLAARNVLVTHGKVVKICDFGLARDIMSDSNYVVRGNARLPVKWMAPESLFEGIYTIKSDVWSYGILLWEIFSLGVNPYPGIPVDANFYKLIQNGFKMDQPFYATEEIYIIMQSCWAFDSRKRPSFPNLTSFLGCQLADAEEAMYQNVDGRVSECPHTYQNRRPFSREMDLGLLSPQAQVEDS
Protocol: as §1, §2

K562 cells = experiment: Resazurin-based viability assay, K562; format: cell-based; conditions: Homo sapiens, 72 h, at least duplicate experiments
Excerpt: as §3, §4

CDK2/E = CDK2/E (Homo sapiens, UniProt P24941); experiment: Kinase inhibition assay CDK2/E; format: biochemical
Protocol: as §5, §2

FLT3-ITD = target: T3, FLT3-ITD (Homo sapiens, UniProt P36888, ITD); experiment: Kinase inhibition assay FLT3-ITD; format: biochemical
T3 sequence (P36888 27-993): T2 sequence (P36888 27-993)
Protocol: as §5, §2

Src = target: T4, Src (Homo sapiens, UniProt P12931); experiment: Kinase selectivity panel at 1 µM (Eurofins), Src; format: biochemical; conditions: read-out: residual enzyme activity Src
T4 construct: purchased Eurofins Discovery (France)
T4 sequence (P12931 whole entry): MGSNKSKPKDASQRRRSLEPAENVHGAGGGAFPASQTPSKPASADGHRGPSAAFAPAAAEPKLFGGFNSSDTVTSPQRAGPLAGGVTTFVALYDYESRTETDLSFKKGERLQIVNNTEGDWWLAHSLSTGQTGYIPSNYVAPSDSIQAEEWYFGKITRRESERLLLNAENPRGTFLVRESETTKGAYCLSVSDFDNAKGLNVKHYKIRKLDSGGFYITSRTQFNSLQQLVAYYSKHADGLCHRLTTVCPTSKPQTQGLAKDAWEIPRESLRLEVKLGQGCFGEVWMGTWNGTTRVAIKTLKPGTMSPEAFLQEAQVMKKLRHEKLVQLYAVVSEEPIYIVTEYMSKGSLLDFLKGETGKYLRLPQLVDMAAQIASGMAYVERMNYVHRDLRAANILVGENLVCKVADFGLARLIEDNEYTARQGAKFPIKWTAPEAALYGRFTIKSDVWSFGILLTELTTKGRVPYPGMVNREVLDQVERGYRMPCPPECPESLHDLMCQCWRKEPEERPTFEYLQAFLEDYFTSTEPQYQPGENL
Protocol: as §1, §2

[1] = at least duplicate experiments, read-out: IC50 CDK4/D1
[2] = at least duplicate experiments, read-out: IC50 CDK2/E
[3] = at least duplicate experiments, read-out: IC50 FLT3-ITD

Row | CDK4 inhibition in selectivity panel (CDK4) | GI50 (MV4-11 cells) [nM] | pIC50 (CDK4/D1; [1]) | FLT3 inhibition in selectivity panel (FLT3) | GI50 (K562 cells) [nM] | pIC50 (CDK2/E; [2]) | pIC50 (FLT3-ITD; [3]) | remaining activity at 1 µM (Src) [%] | pIC50 (CDK4/D1; read-out: IC50 CDK4) | pIC50 (CDK2/E; read-out: IC50 CDK2) | pIC50 (FLT3-ITD; read-out: IC50 FLT3) | remaining activity at 1 µM (CDK4; read-out: residual enzyme activity CDK4) [%] | SMILES | selectivity index (ratio for GI50's of K562 and MV4-11 cells) (MV4-11 cells; K562 / MV4-11)
1 | potent CDK4 and FLT3 inhibitors | 120 | 6.80 | potent CDK4 and FLT3 inhibitors | 960 | < 6.00 and 5.74 | 7.08 | ≤ 10 | – | – | – | – | Cn1c(=O)n(C2CCCC2)c2nc(Nc3ccc(N4CCNCC4)cc3)ncc21 [14d] | –
2 | potent CDK4 and FLT3 inhibitors | 200 | 7.70 | potent CDK4 and FLT3 inhibitors | 4530 | 6.52 | 7.17 | ≤ 10 | ≥ 6.52 | ≥ 6.52 | ≥ 6.52 | – | Cn1c(=O)n(C2CCCCC2)c2nc(Nc3ccc(N4CCNCC4)cc3)ncc21 [14e] | > 20
3 | – | 50 | 5.72 | 1st rank | 580 | 5.30 | 7.43 | ≤ 10 | – | – | – | 90 | CC(C)n1c(=O)n(C2CCCC2)c2nc(Nc3ccc(N4CCNCC4)cc3)ncc21 [15a, 9-cyclopentyl-7-isopropyl-2-((4-(piperazin-1-yl)phenyl)amino)-7,9-dihydro-8H-purin-8-one] | –
